These results are taken from article PMC11576293, “New series of 4,6-diaryl pyrimidines: facile synthesis and antiproliferative activity as dual EGFR/VEGFR-2 inhibitors” (Frontiers in Chemistry, 2024).

Values joined by “and” are separate entries in the source; they are usually repeats but may differ in a detail not shown here. Equal entries are not always repeated.

Experiment [1] has as its system Bax. Briefly: Bax activation assay. As to conditions: for Bax Conc: A-549 cancer cells. The experiment is classed as cell-based, human. The protocol: 4.2.7. Bax activation assay
Bring all reagents, except the human Bax-α Standard, to room temperature for at least 30 minutes prior to opening. The human Bax-α Standard solution should not be left at room temperature for more than 10 minutes. All standards, controls and samples should be run in duplicate. Refer to the Assay Layout Sheet to determine the number of wells to be used and put any remaining wells with the desiccant back into the pouch and seal the ziploc. Store unused wells at 4 °C. Pipet 100 μL of Assay Buffer into the S0 (0 pg/mL standard) wells. Pipet 100 μL of Standards #1 through #6 into the appropriate wells. Pipet 100 μL of the Samples into the appropriate wells. Tap the plate gently to mix the contents. Seal the plate and incubate at room temperature on a plate shaker for 1 hour at ~500 rpm. Empty the contents of the wells and wash by adding 400 μL of wash solution to every well. Repeat the wash 4 more times for a total of 5 washes. After the final wash, empty or aspirate the wells and firmly tap the plate on a lint free paper towel to remove any remaining wash buffer.
Pipet 100 μL of yellow Antibody into each well, except the Blank. Seal the plate and incubate at room temperature on a plate shaker for 1 hour at ~500 rpm. Empty the contents of the wells and wash by adding 400 μL of wash solution to every well. Repeat the wash 4 more times for a total of 5 washes. After the final wash, empty or aspirate the wells and firmly tap the plate on a lint free paper towel to remove any remaining wash buffer. Add 100 μL of blue Conjugate to each well, except the Blank. Seal the plate and incubate at room temperature on a plate shaker for 30 minutes […]
Pipet 100 μL of Substrate Solution into each well. Incubate for 30 minutes at room temperature on a plate shaker at ~500 rpm. Pipet 100 μL Stop Solution to each well. Blank the plate reader against the Blank wells, read the optical density at 450 nm. Calculate the average net Optical Density (OD) bound for each standard and sample by subtracting the average Blank OD from the average OD for each standard and sample. Using linear graph paper, plot the Average Net OD for each standard versus Bax concentration in each standard. Approximate a straight line through the points.
The concentration of Bax in the unknowns can be determined by interpolation. […]

Experiment [2] relates to Bcl-2. As to the kind of experiment: Bcl-2 inhibition assay. The experiment is classed as cell-based, human. As to conditions: A-549 cell line. The protocol: 4.2.8. Bcl-2 inhibition assay
Mix all reagents thoroughly without foaming before use. Wash the microwells twice with approximately 300 μL Wash Buffer per well with thorough aspiration of microwell contents between washes. Take caution not to scratch the surface of the microwells. After the last wash, empty the wells and tap microwell strips on absorbent pad or paper towel to remove excess Wash Buffer. Use the microwell strips immediately after washing or place upside down on a wet absorbent paper for not longer than 15 minutes. […] Add 100 μL of Sample […]
Diluent in duplicate to all standard wells and to the blank wells. Prepare standard (1:2 dilution) in duplicate ranging from 32 ng/mL to 0.5 ng/mL. Add 100 μL of Sample Diluent, in duplicate, to the blank wells. Add 80 μL of Sample Diluent, in duplicate, to the sample wells. Add 20 μL of each Sample, in duplicate, to the designated wells. Add 50 μL of diluted biotin-conjugate to all wells, including the blank wells. Cover with a plate cover and incubate at room temperature, on a microplate shaker at 100 rpm if available, for 2 hours. Remove plate cover and empty the wells.
Wash microwell strips 3 times as described in step 2. Add 100 μL of diluted Streptavidin-HRP to all wells, including the blank wells. Cover with a plate cover and incubate at room temperature, on a microplate shaker at 100 rpm if available, for 1 hour. Remove plate cover and empty the wells.
Wash microwell strips 3 times as described in step 2. Proceed to the next step. Pipette 100 μl of mixed TMB Substrate Solution to all wells, including the blanks. Incubate the microwell strips at room temperature (18° to 25°C) for about 15 minutes, if available on a rotator set at 100 rpm.
Avoid direct exposure to intense light. The point, at which the substrate reaction is stopped, is often determined by the ELISA reader. Many ELISA readers record absorbance only up to 2.0
O.D. Therefore, the color development within individual microwells must be watched by the person running the assay and the substrate reaction stopped before positive wells are no longer properly detectable. Stop the enzyme reaction by quickly pipetting 100 μL of Stop Solution into each well, including the blank wells. It is important that the Stop Solution is spread quickly and uniformly throughout the microwells to completely inactivate the enzyme. Results must be read immediately after the Stop Solution is added or within one hour i f the microwell strips are stored at 2 - 8°C in the dark. Read absorbance of each microwell on a spectrophotometer using 450 nm as the primary wavelength.

In experiment [3] the test system is A-549 cancer cells. Briefly: Wound healing assay (migration, wound closure). In kind it is cell-based, human. Particulars: A-549 cells. As to the method:
Wound healing assay is a simple, reproducible, and non-expensive method to study cancer cell migration in vitro ([Rodriguez et al., 2005]). We investigated the wound-healing activities of compounds 22 and 29 in A-549 cancer cells. […] Furthermore, the wound closure percentage achieved 100% after 72 h of treatment with a compound 22, whereas it reached only 80% with a compound 29.

Experiment [4] concerns MCF-7 Breast Adenocarcinoma cell line. As to the kind of experiment: Wound healing assay (supplement, Table S3). The experiment is classed as cell-based. Particulars: for Migration rate: Rm=Wi−Wf / t. The protocol:
4.3. Wound Healing Assay of MCF-7 Breast Adenocarcinoma
MCF-7 Breast Adenocarcinoma cell line was obtained from Nawah Scientific Inc., (Mokatam, Cairo, Egypt). Cells were maintained in DMEM media supplemented with […] of streptomycin, 100 units/mL of penicillin and 10% of heat-inactivated fetal bovine serum in humidified, 5% (v/v) CO2 atmosphere at 37 °C.
4.3.2. Wound healing assay
Cells were plated at a density of 2x10^5/well onto a coated 12-well plate for scratch wound assay and cultured overnight in 5% FBS-DMEM at 37 °C and 5% CO2. On the next day, horizontal scratches were introduced into the confluent monolayer; the plate was washed thoroughly with PBS, control wells were replenished with fresh medium while drug wells were treated with fresh media containing drug 26 and 27. Images were taken using an inverted microscope at the indicated time intervals. The plate was incubated at 37 °C and 5% CO2 in-between time points. The acquired […]
4.4. Wound Healing Assay Calculations
Wound width can be calculated as the average distance between the edges of the scratches; the wound width decreases as cell migration is induced. The results of compounds 26 and 27 were […]
Migration rate is calculated by dividing the time spent in migration according to the following

For `COc1ccc(CSc2nc(-c3ccc(OC)cc3)cc(-c3cccc(OC)c3)n2)cc1` [Compound 22, 2-(4-Methoxybenzylthio)-6-(3-methoxyphenyl)-4-(4-methoxyphenyl)pyrimidine], the “Bax Conc” value in experiment [1] is 294 pg/mL and 294 ± 6 pg/mL. Moreover, the “Bcl-2 Conc” value in experiment [2] worked out at 0.90 ng/mL. Further, in experiment [3], the “Wound closure % 24 h” value was 25%, the “Wound closure % 48 h” value came out at 50% and the “Wound closure % 72 h” value is 100%.
For `COc1ccc(CSc2nc(-c3ccc(Cl)cc3)cc(-c3ccc(OC)c(OC)c3)n2)cc1` [Compound 29, 2-(4-Methoxybenzylthio)-4-(4-chlorophenyl)-6-(3,4-dimethoxyphenyl)pyrimidine], the “Bax Conc” value in experiment [1] is 278 pg/mL and 278 ± 5 pg/mL. In addition, the “Bax Fold change” value in experiment [1] (compared to untreated A-549 cancer cells) stood at 35 fold. Also, the “Bcl-2 Conc” value in experiment [2] is recorded as 1.15 ng/mL. Further, the “Bcl-2 Fold reduction” value in experiment [2] (versus control) was found to be 5 fold. In experiment [3], the “Wound closure % 24 h” value was 11%, the “Wound closure % 48 h” value is on record as 34% and the “Wound closure % 72 h” value came out at 80%.
Turning to `C=CCSc1nc(-c2ccc(Cl)cc2)cc(-c2ccc(OC)c(OC)c2)n1` [Compound 27, 2-(Allylthio)-4-(4-chlorophenyl)-6-(3,4-dimethoxyphenyl)pyrimidine], in experiment [4], the “Wound Width ±SD 0 h” value is recorded as 1±0.02 mm, the “Wound Width ±SD 24 h” value is listed as 0.88±0.03 mm, the “Wound closure % 24 h” value is given as 11.3% and the “Wound Width ±SD 48 h” value was 0.66±0.03 mm. Besides, in experiment [4], the “Wound closure % 48 h” value is on record as 34%, the “Wound Width ±SD 72 h” value turned out to be 0.2±0.18 mm, the “Wound closure % 72 h” value is 80% and the Migration rate was found to be 0.011.
Regarding `COc1ccc(-c2cc(-c3ccc(Cl)cc3)nc(SC(C)C)n2)cc1OC` [Compound 26, 4-(4-Chlorophenyl)-2-(isopropylthio)-6-(3,4-dimethoxyphenyl)pyrimidine], in experiment [4], the “Wound Width ±SD 0 h” value stood at 1.01±0.02 mm, the “Wound Width ±SD 24 h” value turned out to be 0.76±0.04 mm, the “Wound closure % 24 h” value stood at 25% and the “Wound Width ±SD 48 h” value is on record as 0.51±0.03 mm. In experiment [4], the “Wound closure % 48 h” value is 49.7%, the “Wound Width ±SD 72 h” value amounted to 0 mm, the “Wound closure % 72 h” value came to 100% and the Migration rate is reported as 0.013.
